This passage reports IC50 results from patent publication US20240300951A1, “Pyrazolopyridinone Compounds” (BeiGene Ltd., priority 2021, published 2024).

pIC50: −log10 of the molar value.

In one assay the target is T1, DGKα (Homo sapiens, UniProt P23743).
T1 construct: Full length DGKα (D21-10BG, SignalChem); purchased SignalChem D21-10BG
In words: Biochemical DGK IC50 assay, DGKα ADP-Glo assay. As to conditions: full length DGKα 7.5 nM, ATP 140 μM, DAG 80 μM. The procedure:
(§1) Enzymatic reactions of DGKζ, DGKα and DGKδ were performed using ADP-Glo assay with lipid micelle substrate. […] Full length DGKα (D21-10BG, SignalChem) and full length DGKδ (D23-10G, SignalChem) were purchased. Lipid micelle was prepared by dissolving DAG (Sigma, 317505-10MG) and PS (Sigma, P7769-100MG) with chloroform which was furtherly removed by rotary evaporation. The resulted product was resuspended in buffer containing 25 mM HEPES pH 7.0, 0.5 mM EDTA and 160 mM Octyl β-D glucopyranoside by vigorous mixing and ultrasonic (IID, Scientz)
(§2) The ranges of compounds final concentration were 1.55-10000 nM or 23.3-150000 nM. 3 μL 2× enzyme solution was added to wells.
(In general: ADP-Glo turns the ADP formed in a reaction into a luminescent signal.)

The next assay addresses T2, DGKζ (Homo sapiens, UniProt Q13574).
T2 construct: His (N); TEV cleavage site (N); made in house; host or cells: Sf9 insect cells (baculovirus, Bac-to-Bac)
In words: Biochemical DGK IC50 assay, DGKζ ADP-Glo assay. The note with it: full length DGKζ 0.5 nM, ATP 140 μM, DAG 80 μM. The procedure: as §1, §2
Human His-TEV-DGK-zeta-pFastBac1 and human baculovirus samples was generated using the Bac-to-Bac baculovirus expression system (Invitrogen) according to the manufacturer's protocol. The DNA used for expression of DGK-zeta, have SEQ ID Nos: 1. Baculovirus amplification was achieved using infected SF9 cells at 1:2000 virus/cells ratios, and grown for 96 hours at 27° C. post-transfected.
The expression scaled up for each protein was carried out in the […] from CORNING. 4 L of 3×10^6 cells/mL Sf9 cells (Expression System, Invitrogen) grown in SF900™ II SFM insect medium (Expression System) was infected with virus stock at 1:200 virus/cells ratio, and grown for 48 hours at 27° C. post-transfection. The infected cell culture was harvested by centrifugation at 6000 rpm for 15 min 4° C. in a SORVALL LYNX6000 centrifuge. The cell pellets were stored at −80° C.
Full length human DGK produced as described above, was purified from Sf9 baculovirus-infected insect cell paste. The cells were lysed using sonication method, and the lysates were clarified by centrifugation.

T2 sequence (Q13574 1-929 isoform Q13574-4): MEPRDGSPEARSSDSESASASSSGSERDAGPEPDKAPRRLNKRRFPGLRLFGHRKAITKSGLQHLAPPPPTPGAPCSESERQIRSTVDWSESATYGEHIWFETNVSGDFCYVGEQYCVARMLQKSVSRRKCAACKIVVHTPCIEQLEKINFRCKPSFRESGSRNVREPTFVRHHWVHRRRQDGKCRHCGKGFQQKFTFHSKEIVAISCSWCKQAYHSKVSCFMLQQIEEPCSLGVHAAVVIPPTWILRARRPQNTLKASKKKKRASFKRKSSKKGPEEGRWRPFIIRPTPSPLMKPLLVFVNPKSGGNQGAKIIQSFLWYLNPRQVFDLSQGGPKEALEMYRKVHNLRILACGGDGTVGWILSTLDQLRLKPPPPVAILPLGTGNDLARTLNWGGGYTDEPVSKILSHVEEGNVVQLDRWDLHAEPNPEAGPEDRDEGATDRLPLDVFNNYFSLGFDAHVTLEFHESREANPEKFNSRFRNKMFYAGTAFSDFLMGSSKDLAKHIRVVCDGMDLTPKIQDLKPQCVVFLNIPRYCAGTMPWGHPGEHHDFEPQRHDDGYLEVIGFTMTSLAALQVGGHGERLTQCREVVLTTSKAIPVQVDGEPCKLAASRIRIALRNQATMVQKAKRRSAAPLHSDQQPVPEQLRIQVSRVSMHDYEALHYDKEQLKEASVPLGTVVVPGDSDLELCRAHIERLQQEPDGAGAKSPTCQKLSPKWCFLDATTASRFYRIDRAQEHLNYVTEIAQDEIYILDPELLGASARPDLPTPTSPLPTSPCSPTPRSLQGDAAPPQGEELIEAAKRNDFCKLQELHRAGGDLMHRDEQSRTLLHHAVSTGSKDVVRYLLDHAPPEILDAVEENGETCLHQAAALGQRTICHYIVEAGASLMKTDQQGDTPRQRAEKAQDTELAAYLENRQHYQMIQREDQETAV
T1 sequence (P23743 whole entry): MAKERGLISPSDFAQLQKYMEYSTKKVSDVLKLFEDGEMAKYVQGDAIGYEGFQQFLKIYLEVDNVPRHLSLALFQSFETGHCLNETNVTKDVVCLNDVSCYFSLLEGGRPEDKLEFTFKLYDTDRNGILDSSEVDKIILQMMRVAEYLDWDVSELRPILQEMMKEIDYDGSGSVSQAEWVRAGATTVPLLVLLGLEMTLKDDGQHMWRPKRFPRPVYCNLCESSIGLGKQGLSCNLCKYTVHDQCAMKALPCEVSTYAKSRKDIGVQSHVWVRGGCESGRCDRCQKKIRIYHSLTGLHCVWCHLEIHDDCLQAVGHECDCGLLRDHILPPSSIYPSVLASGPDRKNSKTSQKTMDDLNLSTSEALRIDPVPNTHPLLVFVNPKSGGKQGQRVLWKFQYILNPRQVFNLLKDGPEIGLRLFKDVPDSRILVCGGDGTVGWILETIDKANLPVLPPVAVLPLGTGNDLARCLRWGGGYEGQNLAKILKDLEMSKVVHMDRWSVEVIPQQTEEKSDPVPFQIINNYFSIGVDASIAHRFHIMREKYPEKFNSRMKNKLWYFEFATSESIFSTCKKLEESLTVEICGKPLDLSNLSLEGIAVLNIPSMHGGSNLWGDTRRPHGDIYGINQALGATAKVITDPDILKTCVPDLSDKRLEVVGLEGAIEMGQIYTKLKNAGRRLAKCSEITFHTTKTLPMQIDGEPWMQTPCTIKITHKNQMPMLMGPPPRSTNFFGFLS

“7-((2S,5R)-4-(1-(1-(2,2-difluoroethyl)-1H-pyrazol-5-yl)ethyl)-2,5-diethylpiperazin-1-yl)-4-methyl-2,4-dihydro-5H-pyrazolo[4,3-b]pyridin-5-one [Compound A228]”: the pIC50 at DGKα was less than 5.00; against DGKζ, 5.04. At DGKζ, `Cc1nc2ccc(C(C)N3C[C@H](C)N(c4cc(=O)n(C)c5cn(CC#N)nc45)C[C@H]3C)cn2n1` (mixture of isomers) [Compound A321] had a pIC50 of 5.40.

On to `COCc1cc(F)ccc1C(C)N1C[C@H](C)N(c2cc(=O)n(C)c3cn(CC#N)nc23)C[C@H]1C` (single isomer, unassigned) [Compound A29a], for which the pIC50 on DGKα is less than 5.00; at DGKζ, 5.65. On to `CC(c1ccc2c(c1)OCC(C)(C)O2)N1C[C@H](C)N(c2cc(=O)n(C)c3cn(CC#N)nc23)C[C@H]1C` (single isomer, unassigned) [Compound A46c], for which the pIC50 at DGKα is 5.48; against DGKζ, 6.87.

Turning to `CC(c1ccc2c(c1)OC(C)(C)CO2)N1C[C@H](C)N(c2cc(=O)n(C)c3cn(CC#N)nc23)C[C@H]1C` (single isomer, unassigned) [Compound A46d], the pIC50 on DGKα was 4.94; against DGKζ it was 8.05. With `CC(c1ccc2c(c1)OCC(C)(C)O2)N1C[C@H](C)N(c2cc(=O)n(C)c3cn(CC#N)nc23)C[C@H]1C` (single isomer, unassigned) [Compound A46e], the pIC50 against DGKα was 4.59; against DGKζ, 5.21. On the same counts, the results for `CC[C@H]1CN(C(C)c2ccc(C3CC3)cc2F)[C@H](CC)CN1c1cc(=O)n(C)c2cn(CC#N)nc12` (single isomer, unassigned) [Compound A72a] are 5.92 and 6.07. On the same counts, the results for `CC[C@H]1CN(C(C)c2ccc(C3CC3)cc2F)[C@H](CC)CN1c1cc(=O)n(C)c2cn(CC#N)nc12` (single isomer, unassigned) [Compound A72b] are 7.08 and 7.82. For the molecule `CC[C@H]1CN(C(C)c2ncccc2OC)[C@H](CC)CN1c1cc(=O)n(C)c2cn(CC#N)nc12` (single isomer, unassigned) [Compound A92a], the pIC50 against DGKα and on DGKζ was less than 5.00 throughout. `CC[C@H]1CN(C(C)c2ncccc2OC)[C@H](CC)CN1c1cc(=O)n(C)c2cn(CC#N)nc12` (single isomer, unassigned) [Compound A92b] showed a negative-log IC50 (pIC50) against DGKζ of 5.55.

`CC[C@H]1CN(C(C)c2cccc(C)c2C(F)(F)F)[C@H](CC)CN1c1cc(=O)n(C)c2cn(CC#N)nc12` (single isomer, unassigned) [Compound A110a]: the pIC50 against DGKα was 5.94; against DGKζ, 6.82. On the same counts, the results for `CC[C@H]1CN(C(C)c2cccc(C)c2C(F)(F)F)[C@H](CC)CN1c1cc(=O)n(C)c2cn(CC#N)nc12` (single isomer, unassigned) [Compound A110b] are 5.04 and 5.91. Regarding `CC[C@H]1CN(C2CCCc3ccccc32)[C@H](CC)CN1c1cc(=O)n(C)c2cn(CC#N)nc12` (single isomer, unassigned) [Compound A146a], the pIC50 against DGKα is 6.36; on DGKζ, 6.55. For `CC[C@H]1CN(C2CCCc3ccccc32)[C@H](CC)CN1c1cc(=O)n(C)c2cn(CC#N)nc12` (single isomer, unassigned) [Compound A146b], the pIC50 at DGKα was less than 5.00; on DGKζ, 5.33. Regarding `CC[C@H]1CN(C2CCOc3ccccc32)[C@H](CC)CN1c1cc(=O)n(C)c2cn(CC#N)nc12` (single isomer, unassigned) [Compound A150a], the pIC50 on DGKα was 5.23; at DGKζ, 5.56. `CC[C@H]1CN(C2CCOc3ccccc32)[C@H](CC)CN1c1cc(=O)n(C)c2cn(CC#N)nc12` (single isomer, unassigned) [Compound A150b]: the results for the pIC50 against DGKα and at DGKζ were 7.08 and 6.27, respectively. For the molecule `CC[C@@H]1CN(c2c(Cl)c(=O)n(C)c3cn(CC#N)nc23)CCN1C(C)c1ccc2nccnc2c1` (single isomer, unassigned) [Compound A162a], the negative-log IC50 (pIC50) at DGKα was less than 5.00; against DGKζ, 5.35. On the same counts, the results for `CC[C@H]1CN(C(C)c2ccc(F)cc2C(F)F)[C@H](CC)CN1c1cc(=O)n(C)c2cn(CC#N)nc12` (single isomer, unassigned) [Compound A172a] are less than 5.00 and 5.36.

As to `CC[C@@H]1CN(c2cc(=O)[nH]c3cn(CC#N)nc23)[C@@H](C)CN1C(C)c1ccc2nccnc2c1` (single isomer, unassigned) [Compound A177b], the pIC50 against DGKα was less than 5.00; against DGKζ, 5.44.

Consider `CC[C@H]1CN(C(C)c2ccc3nccnc3c2)[C@H](CC)CN1c1cc(=O)n(C(C)C)c2cn(CC#N)nc12` (single isomer, unassigned) [Compound A190a], for which the pIC50 was less than 5.00 on DGKα and 6.76 at DGKζ. For the molecule `CC[C@H]1CN(C(C)c2ccc3nccnc3c2)[C@H](CC)CN1c1cc(=O)n(C(C)C)c2cn(CC#N)nc12` (single isomer, unassigned) [Compound A190b], the pIC50 against DGKζ was less than 5.00. Take `CC[C@H]1CN(C(C)c2nc(Cl)cn2CC)[C@H](CC)CN1c1cc(=O)n(C)c2cn(CC#N)nc12` (single isomer, unassigned) [Compound A191a]: the pIC50 is less than 5.00 against DGKα and 5.17 against DGKζ.

For `CC[C@H]1CN(C(C)c2nc(Cl)cn2CC)[C@H](CC)CN1c1cc(=O)n(C)c2cn(CC#N)nc12` (single isomer, unassigned) [Compound A191b], the pIC50 against DGKζ was 5.93. For `CC[C@@H]1CN(c2c(F)c(=O)[nH]c3cn(CC#N)nc23)[C@@H](C)CN1C(C)c1ccc2nccnc2c1` (single isomer, unassigned) [Compound A194b], the results for the pIC50 at DGKα and against DGKζ were 5.29 and 5.92, respectively. The matching figures for `CC[C@@H]1CN(c2cc(=O)n(C)c3cn(CC#N)nc23)[C@@H](C)CN1C(C)c1ccc(F)cc1C(F)(F)F` (single isomer, unassigned) [Compound A218a]: less than 3.82 and 6.78. On to `CC#CCn1cc2c(n1)c(N1C[C@@H](CC)N(C(C)c3ccc(F)cc3C(F)(F)F)C[C@@H]1CC)cc(=O)n2C` (single isomer, unassigned) [Compound A238a], for which the pIC50 was less than 5.00 on DGKα and 5.62 against DGKζ. The matching figures for `Cc1c2c(nn1CC#N)c(N1C[C@@H](C)N(C(C)c3ccc(F)cc3C(F)(F)F)C[C@@H]1C)nc(=O)n2C` (single isomer, unassigned) [Compound A267b]: less than 3.82 and 7.15. On the same counts, the results for `Cc1cnc2ccc([C@H](C)N3C[C@H](C)N(c4cc(=O)n(C)c5cn(CC#N)nc45)C[C@H]3C)cc2n1` (single isomer, unassigned) [Compound A269d] are 4.29 and 7.68. As for `CC[C@H]1CN(C(C)c2ccc3nc(OC)cnc3c2)[C@H](CC)CN1c1cc(=O)n(C)c2cn(CC#N)nc12` (single isomer, unassigned) [Compound A281b], the values for the pIC50 against DGKα and on DGKζ were 4.95 and 5.95, respectively.

Consider `CC[C@H]1CN(C(C)c2ccc(C(F)F)nc2)[C@H](CC)CN1c1cc(=O)n(C)c2cn(CC#N)nc12` (single isomer, unassigned) [Compound A351b], for which the pIC50 on DGKα is 5.92; at DGKζ, 5.49. As for `CC[C@H]1CN(C(C)c2ccc(CN3CCOCC3)cc2)[C@H](CC)CN1c1cc(=O)n(C)c2cn(CC#N)nc12` (single isomer, unassigned) [Compound A383b], the pIC50 on DGKα was 5.55; on DGKζ, 5.34. With `CCC1CN(c2c(C#N)c(=O)n(C)c3cn(CC#N)nc23)CCN1C(C)c1ccc2nccnc2c1` [Compound A169, 2-(cyanomethyl)-7-((2S,5R)-3-ethyl-4-(1-(quinoxalin-6-yl)ethyl)piperazin-1-yl)-4-methyl-5-oxo-4,5-dihydro-2H-pyrazolo[4,3-b]pyridine-6-carbonitrile], the pIC50 on DGKα was less than 5.00; against DGKζ it was 6.15.

`COc1cc(F)ccc1C(C)N1C[C@H](C)N(c2cc(=O)n(C)c3cn(CC#N)nc23)C[C@H]1C` (stereo partly drawn) [Compound A248, 2-(7-((2S,5R)-4-(1-(2-omethoxy-4-fluorophenyl)ethyl)-2,5-dimethylpiperazin-1-yl)-4-methyl-5-oxo-4,5-dihydro-2H-pyrazolo[4,3-b]pyridin-2-yl)acetonitrile] showed a pIC50 on DGKζ of 6.24.

For orientation: pIC50 means the negative decadic logarithm of the IC50, by convention in mol/L.
